From article PMC12028158, “Synthesis and In Vitro Evaluation of the Anticancer Effect of Novel Phosphonium Vindoline Derivatives” (International Journal of Molecular Sciences, 2025)
Where two headings read alike, the source gives them in different places.

Legend:
Assay type in all cases: cell-based
[1] = tested on: Renal Cancer panel; assay: NCI60 five-dose screen, panel mean; conditions: Homo sapiens; mean over Renal Cancer panel; read-out: Mean GI50
[2] = tested on: K-562; assay: NCI60 one-dose screen; conditions: Homo sapiens, K562; K-562, 10 μM, one-dose; read-out: Growth percent
[3] = tested on: HOP-62; assay: NCI60 five-dose screen; conditions: Homo sapiens; HOP-62, Non-small Cell Lung Cancer, five-dose; read-out: GI50
[4] = tested on: TK-10; assay: NCI60 five-dose screen; conditions: Homo sapiens; TK-10, Renal Cancer, five-dose; read-out: GI50
[5] = tested on: UACC-62; assay: NCI60 five-dose screen; conditions: Homo sapiens; UACC-62, Melanoma, five-dose; read-out: GI50
[6] = tested on: RPMI-8226; assay: NCI60 one-dose screen; conditions: Homo sapiens; RPMI-8226, 10 μM, one-dose; read-out: Growth percent
[7] = tested on: BT-549; assay: NCI60 five-dose screen; conditions: Homo sapiens; BT-549, Breast Cancer, five-dose; read-out: GI50
[8] = tested on: SK-MEL-2; assay: NCI60 one-dose screen; conditions: Homo sapiens; SK-MEL-2, 10 μM, one-dose; read-out: Growth percent
[9] = tested on: PC-3; assay: NCI60 five-dose screen; conditions: Homo sapiens; PC-3, Prostate Cancer, five-dose; read-out: GI50
[10] = tested on: NCI-H226; assay: NCI60 one-dose screen; conditions: Homo sapiens; NCI-H226, 10 μM, one-dose; read-out: Growth percent
[11] = tested on: HOP-92; assay: NCI60 five-dose screen; conditions: Homo sapiens; HOP-92, Non-small Cell Lung Cancer, five-dose; read-out: GI50
[12] = tested on: OVCAR-3; assay: NCI60 five-dose screen; conditions: Homo sapiens; OVCAR-3, Ovarian Cancer, five-dose; read-out: GI50
[13] = tested on: DU-145; assay: NCI60 one-dose screen; conditions: Homo sapiens; DU-145, 10 μM, one-dose; read-out: Growth percent
[14] = tested on: MOLT-4; assay: NCI60 one-dose screen; conditions: Homo sapiens; MOLT-4, 10 μM, one-dose; read-out: Growth percent
[15] = tested on: ACHN; assay: NCI60 one-dose screen; conditions: Homo sapiens, 10 μM, one-dose, read-out: Growth percent
[16] = tested on: SK-OV-3; assay: NCI60 one-dose screen; conditions: Homo sapiens; SK-OV-3, 10 μM, one-dose; read-out: Growth percent
[17] = tested on: 786-0; assay: NCI60 one-dose screen; conditions: Homo sapiens; 786-0, 10 μM, one-dose; read-out: Growth percent
[18] = tested on: EKVX; assay: NCI60 one-dose screen; conditions: Homo sapiens, 10 μM, one-dose, read-out: Growth percent
[19] = tested on: SK-MEL-28; assay: NCI60 one-dose screen; conditions: Homo sapiens; SK-MEL-28, 10 μM, one-dose; read-out: Growth percent
[20] = tested on: NCI/ADR-RES; assay: NCI60 five-dose screen; conditions: Homo sapiens, Ovarian Cancer, five-dose, read-out: GI50
[21] = tested on: SN12C; assay: NCI60 one-dose screen; conditions: Homo sapiens, 10 μM, one-dose, read-out: Growth percent
[22] = tested on: NCI-H460; assay: NCI60 five-dose screen; conditions: Homo sapiens; NCI-H460, Non-small Cell Lung Cancer, five-dose; read-out: GI50
[23] = tested on: A549/ATCC; assay: NCI60 five-dose screen; conditions: Homo sapiens; A549/ATCC, Non-small Cell Lung Cancer, five-dose; read-out: GI50
[24] = tested on: COLO 205; assay: NCI60 five-dose screen; conditions: Homo sapiens, read-out: GI50
[25] = tested on: HT29; assay: NCI60 five-dose screen; conditions: Homo sapiens, HT-29; HT29, Colon Cancer, five-dose; read-out: GI50
[26] = tested on: MDA-MB-435; assay: NCI60 five-dose screen; conditions: Homo sapiens; MDA-MB-435, Melanoma, five-dose; read-out: GI50
[27] = tested on: U251; assay: NCI60 one-dose screen; conditions: Homo sapiens, U-251; U251, 10 μM, one-dose; read-out: Growth percent
[28] = tested on: K-562; assay: NCI60 five-dose screen; conditions: Homo sapiens, K562; K-562, Leukemia, five-dose; read-out: GI50
[29] = tested on: SF-268; assay: NCI60 one-dose screen; conditions: Homo sapiens; SF-268, 10 μM, one-dose; read-out: Growth percent
[30] = tested on: KM12; assay: NCI60 one-dose screen; conditions: Homo sapiens; KM12, 10 μM, one-dose; read-out: Growth percent
[31] = tested on: SK-OV-3; assay: NCI60 five-dose screen; conditions: Homo sapiens; SK-OV-3, Ovarian Cancer, five-dose; read-out: GI50
[32] = tested on: A498; assay: NCI60 five-dose screen; conditions: Homo sapiens; A498, Renal Cancer, five-dose; read-out: GI50
[33] = tested on: OVCAR-8; assay: NCI60 one-dose screen; conditions: Homo sapiens; OVCAR-8, 10 μM, one-dose; read-out: Growth percent
[34] = tested on: HS 578T; assay: NCI60 one-dose screen; conditions: Homo sapiens; HS 578T, 10 μM, one-dose; read-out: Growth percent
[35] = tested on: U251; assay: NCI60 five-dose screen; conditions: Homo sapiens, read-out: GI50
[36] = tested on: HL-60(TB); assay: NCI60 five-dose screen; conditions: Homo sapiens, read-out: GI50
[37] = tested on: HT29; assay: NCI60 one-dose screen; conditions: Homo sapiens, HT-29; HT29, 10 μM, one-dose; read-out: Growth percent
[38] = tested on: PC-3; assay: NCI60 one-dose screen; conditions: Homo sapiens; PC-3, 10 μM, one-dose; read-out: Growth percent
[39] = tested on: A498; assay: NCI60 one-dose screen; conditions: Homo sapiens; A498, 10 μM, one-dose; read-out: Growth percent
[40] = tested on: HOP-92; assay: NCI60 one-dose screen; conditions: Homo sapiens; HOP-92, 10 μM, one-dose; read-out: Growth percent
[41] = tested on: OVCAR-4; assay: NCI60 five-dose screen; conditions: Homo sapiens; OVCAR-4, Ovarian Cancer, five-dose; read-out: GI50
[42] = tested on: MALME-3M; assay: NCI60 one-dose screen; conditions: Homo sapiens; MALME-3M, 10 μM, one-dose; read-out: Growth percent
[43] = tested on: SF-539; assay: NCI60 one-dose screen; conditions: Homo sapiens; SF-539, 10 μM, one-dose; read-out: Growth percent
[44] = tested on: SF-295; assay: NCI60 five-dose screen; conditions: Homo sapiens; SF-295, CNS Cancer, five-dose; read-out: GI50
[45] = tested on: UACC-62; assay: NCI60 one-dose screen; conditions: Homo sapiens; UACC-62, 10 μM, one-dose; read-out: Growth percent

SMILES: CC[C@]12C=CCN3CC[C@@]4(c5ccc(OC)cc5N(C)[C@H]4[C@@](O)(C(=O)OC)[C@@H]1OC(=O)CCC[P+](c1cc(C)c(OC)c(C)c1)(c1cc(C)c(OC)c(C)c1)c1cc(C)c(OC)c(C)c1)[C@@H]32 [9e]
- GI50 [1]: 440 nM
- activity at 10 µM [2]: -97.5%
- GI50 [3]: 173 nM
- GI50 [4]: 277 nM
- GI50 [5]: 160 nM
- activity at 10 µM [6]: -98.3%
- GI50 [7]: 170 nM
- activity at 10 µM [8]: -98.2%
- GI50 [9]: 192 nM
- activity at 10 µM [10]: -99.3%
- GI50 [11]: 201 nM
- GI50 [12]: 147 nM
- activity at 10 µM [13]: -96.8%
- activity at 10 µM [14]: -98.3%
- activity at 10 µM [15]: -96.5%
- activity at 10 µM [16]: -97.7%
- activity at 10 µM [17]: -97.9%
- activity at 10 µM [18]: -98.2%
- activity at 10 µM [19]: -98.2%
- GI50 [20]: 5110 nM
- activity at 10 µM [21]: -96.7%
- GI50 [22]: 229 nM
- GI50 [23]: 275 nM
- GI50 ([24]; COLO 205, COLO 205, Colon Cancer, five-dose): 91 nM
- GI50 ([24]; COLO 205, colon cancer COLO-205, text): < 100 nM
- GI50 [25]: 151 nM
- GI50 [26]: 231 nM
- activity at 10 µM [27]: -96.5%
- GI50 [28]: 195 nM
- activity at 10 µM [29]: -97.6%
- activity at 10 µM [30]: -95%
- GI50 [31]: 232 nM
- GI50 [32]: 314 nM
- activity at 10 µM [33]: -95.5%
- activity at 10 µM [34]: -98.2%
- GI50 ([35]; U-251, CNS cancer U251, text): < 100 nM
- GI50 ([35]; U-251, U251, CNS Cancer, five-dose): 54 nM
- GI50 ([36]; HL-60, HL-60(TB), Leukemia, five-dose): 39 nM
- GI50 ([36]; HL-60, leukemia HL-60(TB)): < 100 nM
- activity at 10 µM [37]: -97.5%
- activity at 10 µM [38]: -97.7%
- activity at 10 µM [39]: -98.9%
- activity at 10 µM [40]: -98.9%
- GI50 [41]: 271 nM
- activity at 10 µM [42]: -98.4%
- activity at 10 µM [43]: -97.2%
- GI50 [44]: 213 nM
- activity at 10 µM [45]: -97.7%
